{"source": "paper PMC4364779", "about": "“IMD-4690, a Novel Specific Inhibitor for Plasminogen Activator Inhibitor-1, Reduces Allergic Airway Remodeling in a Mouse Model of Chronic Asthma via Regulating Angiogenesis and Remodeling-Related Mediators” (PLoS ONE, 2015)", "key": {"[1]": {"target": "binding of tPA and PAI-1 (Homo sapiens, UniProt P05121)", "sequence (P05121 24-402)": "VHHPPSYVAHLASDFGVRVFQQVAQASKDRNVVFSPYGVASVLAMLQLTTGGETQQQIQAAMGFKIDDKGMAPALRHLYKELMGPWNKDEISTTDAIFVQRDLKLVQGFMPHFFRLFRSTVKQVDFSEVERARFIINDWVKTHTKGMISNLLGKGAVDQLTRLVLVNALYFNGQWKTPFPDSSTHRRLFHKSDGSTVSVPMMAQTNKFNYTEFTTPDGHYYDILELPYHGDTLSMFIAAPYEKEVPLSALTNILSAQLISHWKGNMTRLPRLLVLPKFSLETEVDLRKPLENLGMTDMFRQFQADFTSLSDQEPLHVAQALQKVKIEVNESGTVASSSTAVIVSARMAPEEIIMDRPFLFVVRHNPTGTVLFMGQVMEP", "test": "Inhibition of tPA/PAI-1 complex formation (SDS-PAGE, silver staining, densitometry)", "settings": "recombinant PAI-1 + IMD-4690 in PBS 37°C 5 min, then tPA 37°C 5 min; tPA/PAI-1 complex band densitometry", "experimental": "Fig 1 Schedule of in vivo experiments and biological activity of IMD-4690. (A) Protocols for the mouse experiments. (B) Inhibitory effects of IMD-4690 on the binding of tPA and PAI-1. The recombinant PAI-1 and IMD-4690 were mixed and incubated in PBS at 37°C for 5 min. Then tPA was added. After incubation at 37°C for 5 min, samples were applied for 10% SDS-PAGE and visualized with a silver staining. The bands of tPA/PAI-1 complex were quantified by a densitometry, and calculated IC50.\nA synthetic PAI-1 inhibitor, IMD-4690, 2-[[3-(4-tert-Butylphenoxy)-4'- (trifluoromethoxy) [1,1'-biphenyl]-4-yl]oxy] acetic acid, was molecularly designed, synthesized. IMD-4690 inhibited the binding of tPA and PAI-1 at the IC50 of 8 μM (Fig. 1B)."}, "[2]": {"target": "human PAI-1 (Homo sapiens, UniProt P05121)", "sequence (P05121 24-402)": "as above", "test": "Direct tPA assay of PAI-1 activity (fluorescent substrate Pyr-Gly-Arg-MCA)", "format": "biochemical", "settings": "recombinant tPA and PAI-1, read-out: IC50 of human PAI-1 inhibition", "experimental": "Inhibitory effect of IMD-4690 on the activity of PAI-1 was measured by the direct tPA assay. Briefly, recombinant tPA and PAI-1 was mixed with IMD-4690, and then tPA substrate with fluorescent pigment (Pyr-Gly-Arg-MCA) was added in this mixture and incubated. The enzymatic activity was calculated by measuring the fluorescence. The inhibitory activity of IMD-4690 on other enzymes was measured with the similar method."}, "[3]": {"tested_on": "chronic allergen exposure model of bronchial asthma in mice", "test": "Mediators in lung homogenates (ELISA/activity kits), chronic Dp exposure asthma model", "format": "in vivo, mouse", "experimental": "(§1) All mice were sensitized on days 0 and 7 by intraperitoneal injections of 10 μg of Dp dissolved in 500 μL saline and mixed with 1mg of Alum (Sigma-Aldrich Japan). Dp-sensitized mice were challenged intranasally with 10 μg (10 μL) Dp in 70 μL saline on alternate days, 3 days per week, from days 14 to 67. The mice were also treated intraperitoneally with IMD-4690 (10 mg/kg) (Dp/IMD group) or CMC alone (Dp/CMC group) at the same day with Dp challenge. As a control, mice were challenged with saline and given CMC during this period (control/CMC group) (Fig. 1A). Each experiment was performed using six mice per group.\nThe right lungs were frozen until analyzed. Frozen tissue were solubilized by homogenization in lysis buffer (Cell Signaling Technology, Inc., Danvers, Mass., USA) containing 1 tablet of Complete Protease Inhibitor Cocktail Tablets, EDTA-free (Santa Cruz Biotechnology, Inc., Santa Cruz, CA, USA), per 25 mL of buffer by using an Ultramicro homogenizer set (I.S.O.,Inc., Yokohama, Japan). Samples of the homogenate were centrifuged at 15,000 rpm for 10 min. The supernatants were stored at -80°C.\nProtein concentrations were determined by the BCA method (Pierce, Rockford, IL, USA). Cytokines, growth factors, enzymes, and serum IgE were determined using commercial ELISA kits. ELISA kits and their sensitivities were as follows: IL-4, -5, -12, -13, TNF-α, IFN-γ, VEGF, TGF-β, total MMP-9, and TIMP-1 (R&D Systems, Minneapolis, MN, USA), with sensitivities of 2, 7, 2.5, 1.5, 5.1, 2, 3, 1.7, 7, and 1.4 pg/mL, respectively; active and total PAI-1 (Innovative Research Inc., Sarasota, FL, USA) with sensitivities of 20 and 32 pg/mL; active MMP-9 (MMP-9 Biotrak Activity Assay, GE Healthcare, Buckinghamshire, UK) with a sensitivity of 0.5 ng/mL; HGF (Rat HGF determination kit by EIA, Institute of Immunology Co., Ltd., Tokyo, Japan) with a sensitivity of 0.4 ng/mL; and serum IgE (ELISA mouse IgE kit, Seikagaku Biobussiness Corp., Tokyo, Japan) with a sensitivity of 0.5 ng/mL."}, "[4]": {"tested_on": "chronic allergen exposure model of bronchial asthma in mice", "test": "BALF cell classification, chronic Dp asthma model", "format": "in vivo, mouse", "settings": "10 mg/kg i.p., vs Dp/CMC mice", "experimental": "as §1\nAfter measurement of lung resistance, the mice were euthanized humanely by cutting the axillary artery to obtain serum samples. Following sacrifice, bronchoalveolar lavage was performed twice with saline (0.8 mL) by using a soft cannula. After counting the cell numbers in the BALF using the automated cell viability analyzer Vi-Cell (Beckman Coulter, Calif., USA), BALF samples were cytospun onto glass slides and stained with Diff-Quick (Baxter, Miami, Fla., USA) for classification."}, "[5]": {"tested_on": "chronic allergen exposure model of bronchial asthma in mice", "test": "Serum IgE (ELISA), chronic Dp asthma model", "format": "in vivo, mouse", "settings": "10 mg/kg i.p., vs Dp/CMC mice", "experimental": "as §1\nProtein concentrations were determined by the BCA method (Pierce, Rockford, IL, USA). Cytokines, growth factors, enzymes, and serum IgE were determined using commercial ELISA kits. […]"}, "[6]": {"tested_on": "chronic allergen exposure model of bronchial asthma in mice", "test": "Lung histopathology and morphological analyses, chronic Dp asthma model", "format": "in vivo, mouse", "experimental": "as §1\nThe lung tissues were harvested, fixed in 10% formalin, and embedded in paraffin. Three-micrometer-thick sections were stained with Giemsa, Periodic acid-Schiff (PAS) or Azan Mallory.\nSections of lung tissue were stained immunohistochemically to detect α-smooth muscle actin (SMA), platelet endothelial cell adhesion molecule-1 (PECAM-1)/CD31. Mouse monoclonal anti-smooth muscle (1:800) (Thermo Fisher Scientific Inc., Fremont, CA, USA), or ready-to-use mouse monoclonal CD31 (GeneTex Inc., Irvine, CA, USA) was used as a primary antibody. For immunohistochemical staining, the VECTASTAIN ABC Kit (Vector Laboratories) and the Vector M.O.M. Immunodetection Kit (Vector Laboratories) were used according to the manufacturers’ protocols. Diaminobenzidine was used as a substrate for the immunoperoxidase reaction. Sections were lightly counterstained with hematoxylin and analyzed by bright-field microscopy.\nAn OLYMPUS BX61 microscope (Olympus, Tokyo, Japan) with Scion Image software was used for the morphological analysis. Eosinophils were counted according to a previously described method. The thickness of subepithelial fibrosis and smooth muscle layer were analyzed as follows. The area of subepithelial fibrosis (stained blue) and smooth muscle layer (α-SMA positive) around a bronchus was measured. The average thickness was determined by the area of the positive layer divided by the length of the internal circumference of the area. The mean values for thickness were calculated for 8–10 bronchi per left lung lobe.\nTo quantify the microvessel density, the number of CD31-positive blood vessels per field was counted in 5 random fields in each sample."}, "[7]": {"settings": "BALB/c mice, Dp challenge 8 weeks, 10 mg/kg i.p., vs Dp/CMC mice"}, "[8]": {"settings": "Dp/IMD mice (10 mg/kg i.p.) vs Dp/CMC mice"}, "[9]": {"settings": "ELISA, 10 mg/kg i.p., vs Dp/CMC mice"}}, "data": [{"smiles": "CC(C)(C)c1ccc(Oc2cc(-c3ccc(OC(F)(F)F)cc3)ccc2OCC(=O)O)cc1", "note": "[IMD-4690, 2-[[3-(4-tert-Butylphenoxy)-4'-(trifluoromethoxy) [1,1'-biphenyl]-4-yl]oxy] acetic acid]", "values": [{"measurement": "IC50", "setting": "[1]", "result": 8, "unit": "µM"}, {"measurement": "IC50", "setting": "[2]", "result": 1100, "unit": "nM"}, {"measurement": "IFN-γ production in lung homogenates", "setting": "[3]; 10 mg/kg i.p., vs Dp/CMC mice", "result": "inhibited"}, {"measurement": "IL-4 level in lung homogenates", "setting": "[3]; 10 mg/kg i.p., vs Dp/CMC mice", "result": "significantly decreased"}, {"measurement": "IL-5 level in lung homogenates", "setting": "[3]; 10 mg/kg i.p., vs Dp/CMC mice", "result": "significantly decreased"}, {"measurement": "IL-13 level in lung homogenates", "setting": "[3]; 10 mg/kg i.p., vs Dp/CMC mice", "result": "significantly decreased"}, {"measurement": "Ratio of active MMP-9/TIMP-1 in lung homogenates", "setting": "[3]; 10 mg/kg i.p., vs Dp/CMC mice", "result": "significantly restored"}, {"measurement": "TNF-α production in lung homogenates", "setting": "[3]; 10 mg/kg i.p., vs Dp/CMC mice", "result": "inhibited"}, {"measurement": "Level of active PAI-1 in lung homogenates", "setting": "[3]; [7]", "result": "significantly reduced"}, {"measurement": "Level of total PAI-1 in lung homogenates", "setting": "[3]; [7]", "result": "significantly reduced"}, {"measurement": "HGF levels in lung homogenates", "setting": "[3]; [8]", "result": "significantly higher"}, {"measurement": "Proportion of active PAI-1 as a percentage of the total PAI-1 in lung homogenates", "setting": "[3]; [8]", "result": "significantly lower"}, {"measurement": "Active form of TGF-β1 in lung homogenates", "setting": "[3]; [9]", "result": "significantly reduced"}, {"measurement": "Total MMP-9 levels in lung homogenates", "setting": "[3]; [9]", "result": "tended to decrease the total MMP-9 levels, although no significant differences were observed"}, {"measurement": "VEGF concentration in lung homogenates and BALF", "setting": "[3]; [9]", "result": "significantly reduced"}, {"measurement": "Number of eosinophils in BALF", "setting": "[4]", "result": "significantly decreased"}, {"measurement": "Number of lymphocytes in BALF", "setting": "[4]", "result": "significantly decreased"}, {"measurement": "Serum IgE", "setting": "[5]", "result": "significantly decreased"}, {"measurement": "Subepithelial thickness (subepithelial fibrosis)", "setting": "[6]; Azan-Mallory sections, Dp/IMD mice 10 mg/kg i.p.", "result": "significantly decreased"}, {"measurement": "Vascular density (CD31-positive blood vessels)", "setting": "[6]; CD31 immunohistochemistry, 10 mg/kg i.p.", "result": "significantly decreased"}, {"measurement": "Number of infiltrating eosinophils in the subepithelium", "setting": "[6]; Giemsa-stained lung sections, 10 mg/kg i.p., vs Dp/CMC mice", "result": "significantly decreased"}, {"measurement": "Number of PAS-positive cells (mucous metaplasia)", "setting": "[6]; PAS staining of lungs, 10 mg/kg i.p., vs Dp/CMC mice", "result": "decreased"}, {"measurement": "Subepithelial smooth muscle thickness", "setting": "[6]; α-SMA immunohistochemistry, 10 mg/kg i.p.", "result": "significant reduction"}]}]}
